IC50 data for eleven compounds are collected here from patent US12509444B2, “Compounds and methods for CD73 modulation and indications therefor” (Plexxikon Inc., priority 2019, dated 2025).

Assay [1] concerns the target T1, Human CD73 (amino acid residues 27-549) (Homo sapiens, UniProt P21589).
T1 construct: Human CD73 (amino acid residues 27-549); His tag (N); made in house; host or cells: E. coli
T1 sequence (P21589 27-549): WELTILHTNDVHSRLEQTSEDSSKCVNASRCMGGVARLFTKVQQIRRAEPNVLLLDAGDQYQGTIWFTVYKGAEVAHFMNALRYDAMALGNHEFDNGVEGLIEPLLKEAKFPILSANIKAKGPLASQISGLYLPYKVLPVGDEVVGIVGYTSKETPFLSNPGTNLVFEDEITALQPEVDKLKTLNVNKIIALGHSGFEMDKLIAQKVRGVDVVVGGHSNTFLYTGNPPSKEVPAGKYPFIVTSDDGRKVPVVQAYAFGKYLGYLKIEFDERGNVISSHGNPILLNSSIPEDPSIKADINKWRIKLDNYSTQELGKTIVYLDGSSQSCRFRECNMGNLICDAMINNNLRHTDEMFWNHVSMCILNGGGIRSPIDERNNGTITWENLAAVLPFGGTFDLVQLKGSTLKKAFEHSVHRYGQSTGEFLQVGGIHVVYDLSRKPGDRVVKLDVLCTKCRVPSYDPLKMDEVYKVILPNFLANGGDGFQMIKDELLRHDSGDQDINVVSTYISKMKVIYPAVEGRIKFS
In words: CD73 enzymatic assay (luciferase-based indirect assay, CellTiter-Glo). It is filed as biochemical. The following applies: 0.4 nM CD73, 150 μM AMP, 1 hour at room temperature. An outline of the steps:
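Residual AMP inhibits luciferase, so luminescence reports CD73 turnover; read with CellTiter-Glo 2.0 plus 1 μM final ATP, 30 min. Reaction used 0.4 nM N-His CD73 (27-549, E. coli), 150 μM AMP, HEPES pH 7.4 with Tween 20, 1 h at room temperature. IC50 fitted by nonlinear regression.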

The next assay deals with T2, human CD73 (Homo sapiens, UniProt P21589).
T2 construct: expressed in transfected cells
T2 sequence (P21589 27-549): T1 sequence (P21589 27-549)
The assay can be described thus: Inhibitor activity against CD73 in cell based assay (CD73 expressing CHO-K1 cells). The conditions noted are these: CHO-K1 cells expressing human CD73, 150 μM AMP, 4 hours of incubation; read-out: CHO-K1 CELL VARIANT: CD73 IC50. An outline of the steps:
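Residual supernatant AMP was quantified via CellTiter-Glo luminescence (1 μM ATP added, 30 min, room temperature) after a 4 h exposure of human CD73-expressing CHO-K1 cells to 150 μM AMP plus compound, top final 10 μM, 8 points. IC50 came from nonlinear regression of percent inhibition.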

For `COC(=O)[C@H]1C[C@H](NC(=O)O[C@@H]2CCN(c3cn[nH]c(=O)c3Cl)C2)C1` [P-0188, methyl (1R,3r)-3-(((((R)-1-(5-chloro-6-oxo-1,6-dihydropyridazin-4-yl)pyrrolidin-3-yl)oxy)carbonyl)amino) cyclobutane-1-carboxylate], the IC50 (in assay [1]; at human CD73) was 0.001 to 10 µM throughout.

For `O=C(Nc1ccc(F)cc1)N[C@H]1CC[C@@H](NC(=O)O[C@@H]2CCN(c3cn[nH]c(=O)c3Cl)C2)CC1` [P-0189, (R)-1-(5-chloro-6-oxo-1,6-dihydropyridazin-4-yl)pyrrolidin-3-yl ((1s,4S)-4-(3-(4-fluorophenyl)ureido)cyclohexyl)carbamate], the concentration for half-maximal inhibition (IC50) (in assay [1]; at human CD73) was 0.001 to 10 µM each time.

Regarding `O=C(N[C@H]1CC[C@H](C(=O)O)CC1)O[C@@H]1CCN(c2cn[nH]c(=O)c2Cl)C1` [P-0190, (1R,4r)-4-(((((R)-1-(5-chloro-6-oxo-1,6-dihydropyridazin-4-yl)pyrrolidin-3-yl)oxy)carbonyl)amino) cyclohexane-1-carboxylic acid], the values for the IC50 (in assay [1]; at human CD73) were 0.001 to 10 µM and 10 to 100 µM, respectively.

On to `CCCNC(=O)[C@H]1CC[C@H](NC(=O)O[C@@H]2CCN(c3cn[nH]c(=O)c3Cl)C2)CC1` [P-0191, (R)-1-(5-chloro-6-oxo-1,6-dihydropyridazin-4-yl)pyrrolidin-3-yl ((1r,4R)-4-(propylcarbamoyl)cyclohexyl) carbamate], for which the half-inhibitory concentration (IC50) (in assay [1]; on human CD73) was 0.001 to 10 µM in each case.

For the compound `O=C(N[C@H]1CC[C@H](C(=O)NC2CC2)CC1)O[C@@H]1CCN(c2cn[nH]c(=O)c2Cl)C1` [P-0192, (R)-1-(5-chloro-6-oxo-1,6-dihydropyridazin-4-yl)pyrrolidin-3-yl ((1r,4R)-4-(cyclopropylcarbamoyl)cyclohexyl)carbamate], the IC50 (in assay [1]; on human CD73) was 0.001 to 10 µM throughout.

Take `CCN(C)C(=O)[C@H]1CC[C@H](NC(=O)O[C@@H]2CCN(c3cn[nH]c(=O)c3Cl)C2)CC1` [P-0193, (R)-1-(5-chloro-6-oxo-1,6-dihydropyridazin-4-yl)pyrrolidin-3-yl ((1r,4R)-4-(ethyl(methyl)carbamoyl)cyclohexyl)carbamate]: the IC50 (in assay [1]; at human CD73) was 0.001 to 10 µM in each case.

For `O=C(N[C@H]1CC[C@H](C(=O)Nc2ccccc2)CC1)O[C@@H]1CCN(c2cn[nH]c(=O)c2Cl)C1` [P-0194, (R)-1-(5-chloro-6-oxo-1,6-dihydropyridazin-4-yl)pyrrolidin-3-yl ((1r,4R)-4-(phenylcarbamoyl)cyclohexyl) carbamate], the IC50 (in assay [1]; on human CD73) was 0.001 to 10 µM in each case.

Regarding `O=C(N[C@H]1CC[C@@H](NC(=O)c2ccc(F)cc2)CC1)O[C@@H]1CCN(c2cn[nH]c(=O)c2Cl)C1` [P-0195, (R)-1-(5-chloro-6-oxo-1,6-dihydropyridazin-4-yl)pyrrolidin-3-yl ((1s,4S)-4-(4-fluorobenzamido)cyclohexyl) carbamate], the 50% inhibitory concentration (IC50) (in assay [1]; on human CD73) was 0.001 to 10 µM throughout.

In the case of `CC(=O)N[C@H]1CC[C@@H](NC(=O)O[C@@H]2CCN(c3cn[nH]c(=O)c3Cl)C2)CC1` [P-0196, (R)-1-(5-chloro-6-oxo-1,6-dihydropyridazin-4-yl)pyrrolidin-3-yl ((1s,4S)-4-acetamidocyclohexyl)carbamate], the IC50 (in assay [1]; at human CD73) was 0.001 to 10 µM in each case.

As to `O=C(NC1CCCCC1)N[C@H]1CC[C@@H](NC(=O)O[C@@H]2CCN(c3cn[nH]c(=O)c3Cl)C2)CC1` [P-0197, (R)-1-(5-chloro-6-oxo-1,6-dihydropyridazin-4-yl)pyrrolidin-3-yl ((1s,4S)-4-(3-cyclohexylureido)cyclohexyl) carbamate], the half-maximal inhibitory concentration (IC50) (in assay [1]; at human CD73) was 0.001 to 10 µM in each case.

Turning to `O=C(NC1CC2(C1)CN(C(=O)Nc1ccc(F)cc1)C2)O[C@@H]1CCN(c2cn[nH]c(=O)c2Cl)C1` [P-0198, (R)-1-(5-chloro-6-oxo-1,6-dihydropyridazin-4-yl)pyrrolidin-3-yl (2-((4-fluorophenyl)carbamoyl)-2-azaspiro[3.3]heptan-6-yl)carbamate], the half-inhibitory concentration (IC50) in assay [1] was 0.001 to 10 µM; at human CD73, 10 to 100 µM.
